These results are taken from publication PMC9304199, “A small molecule CFTR potentiator restores ATP‐dependent channel gating to the cystic fibrosis mutant G551D‐CFTR” (British Journal of Pharmacology, 2022).

The experiment addresses G551D‐CFTR (Homo sapiens, UniProt P13569, G551D). Description: Single-channel recording in excised inside-out membrane patches, G551D‐CFTR. The experiment is classed as biochemical. Also on record: expressed in transfected cells; BHK cells from MD Amaral. Conditions: for enhancement of Po(app): each compound 10 μM, alone or together; for Emax: read-out: Maximal effect (%) (95% CI). Here is the method:
For CFTR studies using automated electrophysiology and single-channel recording, we used baby hamster kidney (BHK) cells (RRID:CVCL_1915) and human embryonic kidney (HEK) 293 cells (RRID:CVCL_0045) stably expressing wild-type human CFTR and the CFTR variants F508del- and […] et al., [2002]; Xu et al., [2014]). […] HEK cells expressing CFTR variants were generated using the Flp-InTM system as described above for F508del- and G551D-CFTR-expressing FRT cells. They were cultured in Dulbecco's modified Eagle's medium (glucose, 1.5 g·L^-1; sodium pyruvate, 110 mg·L^-1) supplemented with 10% FBS (PAA Laboratories), GlutaMAXTM and hygromycin-B (150 μg·ml^-1; InvitrogenTM, Thermo Fisher Scientific) at 37°C in a humidified atmosphere with 5% CO2. Prior to study, F508del-CFTR expressed in HEK cells was trafficked to the plasma membrane by low temperature incubation (27°C for 24-72 h). The single-channel behaviour of human CFTR in excised membrane patches from different mammalian cell lines heterologously expressing CFTR is equivalent (wild-type CFTR, Chen et al., [2009]; F508del-CFTR, Bose et al., [2019]; and G551D-CFTR, J Liu, Y Wang, Z Cai, and DN Sheppard, unpublished observations). CFTR Cl^- channels were recorded in excised inside-out membrane patches using an Axopatch 200B patch-clamp amplifier and pCLAMP software (version 10.3) (RRID:SCR_011323) (both from Molecular Devices, San Jose, CA, USA) (Sheppard & Robinson, [1997]). […] Within 2 min after membrane patch excision, we added the catalytic subunit of protein kinase A (PKA; 75 nM) and ATP (1 mM) to the intracellular solution to activate CFTR Cl^- channels. To minimise channel rundown, we added PKA and millimolar concentrations of ATP to all intracellular solutions and clamped voltage at -50 mV. […] We reduced the ATP concentration when testing CFTR potentiators on wild-type CFTR to observe their effects more clearly. […] Instead, specific interventions with CFTR potentiators were compared with the pre-intervention control period made with the same concentration of ATP and PKA, but without test compounds. […] F508del-CFTR, n ≤ 4; G551D-CFTR, n ≤ 5). To determine channel number, we used the maximum number of simultaneous channel openings observed during an experiment (Cai et al., [2006]). To minimise errors, we used experimental conditions that robustly potentiate channel activity and verified that recordings were of sufficient length to ascertain the correct number of channels ([…] et al., [1994]). […] Despite our precautions, we cannot exclude the possibility of unobserved G551D-CFTR Cl^- channels in excised membrane patches causing Po values for G551D-CFTR to be […]. Therefore, Po values for G551D-CFTR are expressed as apparent Po (Po(app)) values. Single-channel currents were directly acquired to a computer hard disc after filtering at a corner frequency (f c) of 500 Hz with an eight-pole Bessel filter (model LHBF-48×; npi electronic GmbH, Tamm, Germany) and digitising at a sampling rate of 5 kHz using a Digidata 1440A interface (Molecular Devices) and pCLAMP software. To measure single-channel current amplitude (i), Gaussian distributions were fit to current amplitude histograms. For Po and burst analyses, lists of open- and closed-times were created using a half-amplitude crossing criterion for event detection and dwell-time histograms constructed as previously described (Sheppard & Robinson, [1997]); transitions < 1 ms were excluded from the analysis (eight-pole Bessel filter rise time [T 10-90] ~ 0.73 ms at f c = 500 Hz). Histograms were fitted with one or more component exponential functions using the maximum likelihood method. […] The mean interburst interval (TIBI) was calculated using the equation (Cai et al., [2006]): (1) Po=Tb/TMBD+TIBI, where T b = (mean burst duration) × (open probability within a burst). Mean burst duration (T MBD) and open probability within a burst (Po[burst]) were determined directly from experimental data using pCLAMP software. […]

Setting [1] is: G551D‐CFTR Cl− channels, excised inside-out patches, 23°C, data normalised to ivacaftor 1 μM, read-out: EC50 (μM) (95% CI).
Setting [2] is: G551D‐CFTR, ATP 1 mM, PKA 75 nM, ~23°C.
Setting [3] is: G551D‐CFTR, ATP 1 mM, PKA 75 nM, ~23°C, read-out: EC50 for potentiation of Po(app).
Where [4] appears, read: G551D‐CFTR, compound 10 μM, ATP 0.1–3 mM.

Where two headings read alike, the source gives them in different places.

Chain of G551D‐CFTR (P13569 whole entry G551D): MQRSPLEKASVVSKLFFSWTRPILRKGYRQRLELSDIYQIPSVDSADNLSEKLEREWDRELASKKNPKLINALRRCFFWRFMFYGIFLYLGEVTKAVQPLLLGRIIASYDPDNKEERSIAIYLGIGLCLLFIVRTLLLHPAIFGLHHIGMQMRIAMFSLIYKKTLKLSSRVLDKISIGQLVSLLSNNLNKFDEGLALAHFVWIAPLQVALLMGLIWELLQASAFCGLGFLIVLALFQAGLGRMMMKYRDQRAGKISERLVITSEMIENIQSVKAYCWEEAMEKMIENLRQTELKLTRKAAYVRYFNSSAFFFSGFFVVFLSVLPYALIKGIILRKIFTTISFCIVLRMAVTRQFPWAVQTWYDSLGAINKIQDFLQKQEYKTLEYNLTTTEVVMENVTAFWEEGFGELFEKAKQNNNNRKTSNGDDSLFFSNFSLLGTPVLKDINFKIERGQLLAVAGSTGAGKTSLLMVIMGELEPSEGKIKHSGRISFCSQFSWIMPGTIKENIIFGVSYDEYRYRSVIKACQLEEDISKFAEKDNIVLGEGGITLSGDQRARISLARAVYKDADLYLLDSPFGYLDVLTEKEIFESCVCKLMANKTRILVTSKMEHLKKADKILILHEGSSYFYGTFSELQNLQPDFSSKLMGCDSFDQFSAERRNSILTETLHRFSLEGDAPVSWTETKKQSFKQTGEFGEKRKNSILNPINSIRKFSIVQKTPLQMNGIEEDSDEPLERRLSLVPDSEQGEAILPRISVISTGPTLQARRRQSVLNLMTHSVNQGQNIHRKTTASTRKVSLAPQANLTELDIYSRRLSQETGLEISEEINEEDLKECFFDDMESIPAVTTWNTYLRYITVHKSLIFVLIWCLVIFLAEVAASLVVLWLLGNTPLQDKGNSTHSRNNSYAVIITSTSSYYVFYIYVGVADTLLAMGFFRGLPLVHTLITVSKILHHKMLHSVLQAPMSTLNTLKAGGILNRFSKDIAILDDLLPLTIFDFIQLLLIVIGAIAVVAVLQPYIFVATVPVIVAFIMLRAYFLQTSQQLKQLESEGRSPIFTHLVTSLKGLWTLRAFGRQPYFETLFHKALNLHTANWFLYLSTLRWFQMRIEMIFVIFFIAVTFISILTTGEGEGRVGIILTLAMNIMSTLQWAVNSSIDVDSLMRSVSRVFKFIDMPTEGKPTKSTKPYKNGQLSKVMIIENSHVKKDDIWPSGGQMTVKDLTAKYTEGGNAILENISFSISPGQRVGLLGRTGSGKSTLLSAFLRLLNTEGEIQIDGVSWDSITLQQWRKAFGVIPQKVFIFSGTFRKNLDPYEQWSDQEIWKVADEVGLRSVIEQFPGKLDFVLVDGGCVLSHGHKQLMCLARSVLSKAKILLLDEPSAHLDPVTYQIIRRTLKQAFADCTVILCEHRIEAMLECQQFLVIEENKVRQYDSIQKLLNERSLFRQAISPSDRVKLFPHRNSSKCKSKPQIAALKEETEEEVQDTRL

By EC50 is commonly meant the concentration that produces a half-maximal response. For `Cc1ncccc1CNC(=O)c1ccc2c(c1)CC[C@H]1C[C@](O)(CCC(F)(F)F)CC[C@]21Cc1ccccc1` (racemic) [CP‐628006, rac‐(4bR,7R,8aS)‐4b‐benzyl‐7‐hydroxy‐N‐((2‐methylpyridin‐3‐yl)methyl)‐7‐(3,3,3‐trifluoropropyl)‐4b,5,6,7,8,8a,9,10‐octahydrophenanthrene‐2‐carboxamide], the Emax came out at 145%. Besides, the EC50 under setting [1] was 0.17 µM. Moreover, under setting [2], the “Po(app) max” value was determined as 0.38. For the same compound, the EC50 under setting [3] came out at 0.38 µM. For the same compound, under setting [4], the “Po(app) max of ATP-dependence in presence of compound” value came out at 0.30. Besides, the “enhancement of Po(app)” value (G551D‐CFTR, ATP 1 mM) came out at 71 ± 30 fold.
As to `CC(C)(C)c1cc(C(C)(C)C)c(NC(=O)c2c[nH]c3ccccc3c2=O)cc1O` [ivacaftor, reference compound], the Emax came out at 96.7%. Further, the EC50 under setting [1] came out at 0.036 µM. Further, the “Po(app) max” value under setting [2] was 0.31. Further, the EC50 under setting [3] came out at 0.14 µM. Also, the “ATP-dependence of G551D‐CFTR activity in presence of compound” value under setting [4] is recorded as “unaffected by altering the ATP concentration”. The “enhancement of Po(app)” value (G551D‐CFTR, ATP 1 mM) came to 44 ± 12 fold.
